Patent publication US10857107B2, “Cannabinoid-containing complex mixtures for the treatment of mast cell-associated or basophil-mediated inflammatory disorders” (priority 2017, dated 2020)
pIC50: −log10 of the molar value. Entries after “also recorded” stand apart in the source; their conditions may differ. Where two headings read alike, the source gives them in different places.

Assays:
Format in all cases: cell-based
[1] = test system: mast cells (from a mast cell line, RBL2H3); test: FcεRI ligation-induced mast cell degranulation measured by histamine release (ELISA); details: nanomolar concentration; compared to PMA/Iomomycin (100%)
RBL2H3 cells [2] = test: FcεRI-induced degranulation with CBG/CBD, FAAH inhibitor or PDEI pre-incubation (beta-hexoaseaminidase assay); details: for Outcome (normalized cellular degranulation response): T60
Description: Experiments were conducted to test the hypothesis that CBG-mediated anti-inflammatory effects, i.e., suppression of degranulation, is by increase of intracellular cAMP and the increase of intracellular cAMP results from CBG's antagonizing effects on the interaction between AEA and CB1/2 receptors. To test this hypothesis, the ability of CBG to decrease FcεRI-induced degranulation was assessed. Mast cells were incubated with or without CBG before addition of FcεRI. An FAAH inhibitor was used as a control to increase the levels of AEA and thus saturate the CB1/2 receptors, resulting in decreased cAMP. PDEI was used as a control to directly increase the levels of intracellular cAMP. Cells were also incubated with CBD alone or CBG and CBD to assess the synergistic effects of CBD and CBG.
RBL2H3 cells were pre-incubated for 3 h at 37° C. at with (i) 10 μM FAAH inhibitor LY2183240/PF750 cocktail, (ii) 10 μM PDEI 3-isobutyl-1-methylxanthine (IBMX), or (iii) vehicle (Table 3). Vehicle or 300 nM CBG (30% of the CBG dose previously determined to cause maximal enhancement of the suppressive effect of CBD) was applied to Groups D-F and J-I, the first—one hour prior to FcεRI-induction—and the second—two hour prior to FcεRI-induction (T0, antigen), and remained throughout the course of the experiment. Vehicle was DMSO, methanol, or PBS. 10 μM CBD was additionally added to Groups D-I, 20 minutes prior to FcεRI-induction of degranulation. Cellular degranulation was measured using a beta-hexoaseaminidase assay at 1 h post-induction (T60). Replicates were done in triplicate and averaged. Degranulation of each of the groups was normalized to Row L. The outcome data presented in the column “Outcome” of Table 3 is the normalized cellular degranulation response of each averaged group. Group ABC was p<0.005 relative to Group LMN. Group GHI was p<0.005 relative to Group LMN. Row F had no significant difference relative to Row D. Row E was p<0.05 relative to Row D.

[3] = test system: mast cells (from a mast cell line, RBL2H3); test: FcεRI ligation-induced mast cell degranulation measured by histamine release (ELISA); details: for inhibition at 10 µM: Rattus norvegicus; for anti-inflammatory effects on mast cell degranulation (in words): individual compound alone, 10 μM, histamine release; for increase of FcεRI ligation-induced histamine secretion: compound alone at 10 μM (FIG. 5)
Description: For the FcεRI assay, mast cells (from a mast cell line, RBL2H3) were plated in cluster plates at 5×10^4 cells/well. Monolayers were washed and incubated in 200 μl Tyrode's buffer. The mast cells were then primed with 1 μg/ml IgE-anti-DNP antibodies for 16 hours. The cells were then washed three times and a cannabinoid-containing complex mixture, prepared as above-described, was applied. The tested complex mixtures were applied in an amount calculated to expose the mast cells to 10 μM of cannabidiol and 10 μM of each minor cannabinoid or terpene component. Control for maximal FcεRI ligation-induced degranulation included no cannabinoid-containing complex mixture.
After 10 minutes, 250 ng/ml of DNP-BSA was applied to ligate FcεRI molecules on the mast cell surface.
Mast cell culture medium was collected 60 minutes after exposure to DNP-BSA with or without a tested cannabinoid-containing complex mixture. Degranulation of the mast cells was tested by measuring histamine release using a commercial ELISA kit (e.g., histamine ELISA kit available from ENZO Life Sciences, Inc., Rocky Mountain Diagnostics, Inc., etc.).
Mast cell degranulation for each tested complex mixture was measured based on the amount of histamine release and is presented as % histamine release compared to histamine release in response to PMA/Ionomycin (100%). Each complex mixture was tested in twenty-four (8×3) independent experiments and data from the twenty four independent experiments were averaged. The averaged values are presented as a bar for each complex mixture in FIG. 2. Standard deviations are also provided in the graph.
The % degranulation in response to each cannabinoid-containing complex mixture was used to calculate % inhibition of degranulation by subtracting the % degranulation from 100%.
Anti-inflammatory effects of (i) each major cannabinoid, (ii) each minor cannabinoid, and (iii) each selected terpene, were assessed based on their inhibition of FcεRI-induced mast cell degranulation by measuring histamine release as described above.
Their anti-inflammatory effects are presented as % reduction of histamine release in the presence of the tested compound compared to the histamine release in the presence of PMA/Ionomycin (0%). Standard deviations of the experimental data are also provided in the graphs.

Mast cells [4] = test: FcεRI-induced mast cell degranulation, beta-hexoseaminidase assay (dose response); details: for change of anti-inflammatory effects when 10 μM cannabigerol was added: various concentrations (1 nM to 50 μM) plus 10 μM cannabigerol; for pIC50: read-out: IC50 of inhibitory effects on FcεRI-induced degranulation
Description: As provided in FIG. 12, anti-inflammatory effects of limonene, and cannabidiol (CBD), were assessed at 11 different concentrations (x-axis: 0, 1, 5, 10, 50, 100, 500, 1000, 5000, 10000, 50000 nM) in the presence (a line with triangles and a line with circles, respectively) or absence of 10 μM cannabigerol (CBG-a line with diamonds and a line with exes, respectively). In this experiment, anti-inflammatory effects of the mixtures were based on effects on mast cell degranulation, measured using a beta-hexoseaminidase assay.
Beta-hexoseaminidase assays: Mast cells were primed with anti-DNPA IgE, and then stimulated with DNP-BSA in the presence of absence of a tested composition as described in Example 2. Mast cell culture medium was collected 60 minutes after exposure to FcεRI and incubated for 45 minutes at 37° C. 25 μl of its supernatant was removed, clarified by microcentrifugation, and transferred to a 96 well plate containing 100 μl per well 1 mM p-N-acetyl glucosamine (Sigma) in 0.05 M citrate buffer pH 4.5. After incubating the mixture for 1 hour at 37° C., the reaction was quenched by addition of 100 μl per well 0.2 M glycine, pH 9.0. Beta-hexosaminidase levels were read as OD at 405 nm.

Mast cells [5] = test: Histamine release with cannabidivarin, with or without FcεRI ligation (time course)
Description: FIG. 7A provides data from Example 3 illustrating pro-inflammatory effects of cannabidivarin. […] The X-axis represents minutes after application of the FcεRI crosslinking agonist, and the y-axis represents the amount of histamine release (pg/10 million cells). FIG. 7B compares histamine release (pg/10 million cells) measured 10 minutes after exposure to the FcεRI crosslinking agonist (left) or to cannabidivarin without the FcεRI crosslinking agonist (right).
The x-axis represents minutes after application of BSA-DNP and y-axis represents the amount of histamine release (pg/10 million cells). Pro-inflammatory effects of cannabidivarin was even greater than effects of FcεRI ligation; histamine release in response to FcεRI ligation was about 220 pg/10 million cells after 10 minute exposure, while histamine release in response to cannabidivarin (without concurrent FcεRI ligation) was about 340 pg/10 million cells.

RBL2H3 cells [6] = test: Intracellular free calcium assay (Fluo-4); details: external calcium 1 mM
Description: FIG. 16 provides data from Example 6 illustrating the intracellular free calcium measurements in the presence of external calcium (1 mM) in RBL2H3 cells stimulated in the absence (control vehicle) or presence of 1, 10, or 50 μM CBG. Ionomycin was used as a positive control. Stimuli were added at 20 s.
RBL2H3 cells were washed and incubated with 0.2 μM Fluo-4 for 30 minutes at 37° C. in a standard modified Ringer's solution (145 mM NaCl, 2.8 mM KC1, 10 mM CsCl, +/−1-10 mM CaCl2, 2 mM MgCl2, 10 mM glucose, 10 mM HEPES, pH 7.4, 330 mOsm). Cells were transferred to 96-well plates at 50,000 cells/well and stimulated with 1, 10, or 50 μM CBG. 500 nM ionomycin was used as positive control to induce calcium response. Calcium signals were acquired using a Flexstation 3 (Molecular Devices, Sunnydale, USA) for 3 min. Data was analyzed using SoftMax® Pro 5 (Molecular Devices).

[7] = Antigen at T0, only the named substance(s), otherwise vehicle, 300 nM CBG, 10 μM CBD, 10 μM LY2183240/PF750 or IBMX, normalized to Row L
[8] = RBL-2H3, read-out: % inhibition of FcεRI-induced degranulation (reduction of histamine secretion)
[9] = Antigen at T0, cells pre-incubated 3 h with 10 μM FAAH inhibitor LY2183240/PF750 cocktail, 300 nM CBG, 10 μM CBD
[10] = Antigen at T0, cells pre-incubated 3 h with 10 μM PDEI IBMX, 300 nM CBG, 10 μM CBD

CCCCCCC(C)(C)c1ccc([C@@H]2C[C@H](O)CC[C@H]2CCCO)c(O)c1 [CP55940]
suppression of histamine release of mast cells [1]: about 30%

CC(C)Cn1c(=O)n(C)c(=O)c2[nH]cnc21 [IBMX, 3-isobutyl-1-methylxanthine]
Outcome (normalized cellular degranulation response) (RBL2H3 cells [2]; [7]): 0.34
reduction of FcεRI-induced degranulation (RBL2H3 cells [2]; alone, 10 μM, Row N): 3 fold
Outcome (normalized cellular degranulation response) (RBL2H3 cells [2]; no Antigen (vehicle at T0), 10 μM pre-incubation 3 h): 0.06

CCCCCc1cc(O)c2c(c1)OC(C)(CCC=C(C)C)C=C2 (stereo not drawn) [cannabichromene]
inhibition at 10 µM [3, 8]: ≤ 20%
anti-inflammatory effects on mast cell degranulation (in words) [3]: almost no anti-inflammatory effects

C=C(C)[C@@H]1CCC(C)=C[C@H]1c1c(O)cc(CCCCC)cc1O [cannabidiol]
inhibition at 10 µM ([3]; RBL-2H3, read-out: % inhibition of FcεRI-induced degranulation (reduction of histamine secretion), individual compound alone at 10 μM): 23%
Outcome (normalized cellular degranulation response) (RBL2H3 cells [2]; [9]): 0.56
Outcome (normalized cellular degranulation response) (RBL2H3 cells [2]; [10]): 0.32
Outcome (normalized cellular degranulation response) (RBL2H3 cells [2]; [7]): 0.54
change of anti-inflammatory effects when 10 μM cannabigerol was added (Mast cells [4]): significantly enhanced their anti-inflammatory effects

C=C(C)[C@@H]1CCC(C)=C[C@H]1c1c(O)cc(CCC)cc1O [cannabidivarin]
increase of FcεRI ligation-induced histamine secretion [3]: 26%
increase of FcεRI ligation-induced histamine secretion ([3]; listed as Cannabidivarin): more than 20%
histamine release (Mast cells [5]; in response to cannabidivarin without concurrent FcεRI ligation, 10 minute exposure): about 340 pg/10 million cells
effect of pretreatment on FcεRI ligation-induced histamine release (Mast cells [5]; pretreatment with 10 μM for 10 minutes before FcεRI ligation): significantly enhanced pro-inflammatory effects of FcεRI ligation; also recorded: further enhanced pro-inflammatory effects

CCCCCc1cc(O)c(C/C=C(\C)CCC=C(C)C)c(O)c1 [cannabigerol]
inhibition at 10 µM [3, 8]: ≤ 20%
anti-inflammatory effects on mast cell degranulation (in words) [3]: almost no anti-inflammatory effects
anti-inflammatory effects on mast cell degranulation (in words) ([3]; listed as Cannabigerol): does not have significant effects on mast cell degranulation
effect on intracellular calcium (RBL2H3 cells [6]; 50 μM): moderate increase in intracellular calcium
effect on intracellular calcium (RBL2H3 cells [6]; lower doses (1 and 10 μM)): did not significantly alter the intracellular calcium
Outcome (normalized cellular degranulation response) (RBL2H3 cells [2]; [9]): 0.92
Outcome (normalized cellular degranulation response) (RBL2H3 cells [2]; [10]): 0.28
Outcome (normalized cellular degranulation response) (RBL2H3 cells [2]; [7]): 0.98
suppression of FcεRI ligation-induced degranulation (Mast cells [4]; alone, at the highest concentration tested (50 μM)): less than 10%

CCCCCc1cc(O)c2c(c1)OC(C)(C)c1ccc(C)cc1-2 [cannabinol]
inhibition at 10 µM [3, 8]: ≤ 20%

C=C(C)[C@H]1CC=C(C)CC1 [limonene]
% inhibition of FcεRI-induced degranulation (reduction of histamine secretion) ([3]; individual compound alone at 10 μM): 24%
pIC50 (Mast cells [4]; alone): ~6.32
pIC50 (Mast cells [4]; in combination with 10 μM cannabigerol (CBG)): ~7.00
change of anti-inflammatory effects when 10 μM cannabigerol was added (Mast cells [4]): significantly enhanced their anti-inflammatory effects

C=CC(C)(O)CCC=C(C)C (stereo not drawn) [linalool]
anti-inflammatory effects on mast cell degranulation (in words) [3]: almost no anti-inflammatory effects

C=CC(C)(O)CCC=C(C)CCC=C(C)C (stereo not drawn) [nerolidol]
anti-inflammatory effects on mast cell degranulation (in words) [3]: almost no anti-inflammatory effects

C/C(=C\CO)CCC[C@H](C)CCC[C@H](C)CCCC(C)C [phytol]
anti-inflammatory effects on mast cell degranulation (in words) [3]: almost no anti-inflammatory effects

CC1=CCC2CC1C2(C)C (stereo not drawn) [pinene]
anti-inflammatory effects on mast cell degranulation (in words) [3]: almost no anti-inflammatory effects
